Measurements taken from the kinase profiling compilation of Christmann-Franck et al. (2016).

Assays:
Assay in all cases: radiometric filter-binding kinase assay, Kinase HotSpot
Details in all cases: compound 0.5 µM; ATP 10 µM
ACVRL1 (human) = ACVRL1 (human) (UniProt P37023)
AKT1 (human) = AKT1 (human) (UniProt P31749)
BLK (human) = BLK (human) (UniProt P51451)
BRSK1 (human) = BRSK1 (human) (UniProt Q8TDC3)
BRSK2 (human) = BRSK2 (human) (UniProt Q8IWQ3)
CAMKK2 (human) = CAMKK2 (human) (UniProt Q96RR4)
CDC42BPA (human) = CDC42BPA (human) (UniProt Q5VT25)
Chain of CDC42BPA (human) (Q5VT25 whole entry, looked up): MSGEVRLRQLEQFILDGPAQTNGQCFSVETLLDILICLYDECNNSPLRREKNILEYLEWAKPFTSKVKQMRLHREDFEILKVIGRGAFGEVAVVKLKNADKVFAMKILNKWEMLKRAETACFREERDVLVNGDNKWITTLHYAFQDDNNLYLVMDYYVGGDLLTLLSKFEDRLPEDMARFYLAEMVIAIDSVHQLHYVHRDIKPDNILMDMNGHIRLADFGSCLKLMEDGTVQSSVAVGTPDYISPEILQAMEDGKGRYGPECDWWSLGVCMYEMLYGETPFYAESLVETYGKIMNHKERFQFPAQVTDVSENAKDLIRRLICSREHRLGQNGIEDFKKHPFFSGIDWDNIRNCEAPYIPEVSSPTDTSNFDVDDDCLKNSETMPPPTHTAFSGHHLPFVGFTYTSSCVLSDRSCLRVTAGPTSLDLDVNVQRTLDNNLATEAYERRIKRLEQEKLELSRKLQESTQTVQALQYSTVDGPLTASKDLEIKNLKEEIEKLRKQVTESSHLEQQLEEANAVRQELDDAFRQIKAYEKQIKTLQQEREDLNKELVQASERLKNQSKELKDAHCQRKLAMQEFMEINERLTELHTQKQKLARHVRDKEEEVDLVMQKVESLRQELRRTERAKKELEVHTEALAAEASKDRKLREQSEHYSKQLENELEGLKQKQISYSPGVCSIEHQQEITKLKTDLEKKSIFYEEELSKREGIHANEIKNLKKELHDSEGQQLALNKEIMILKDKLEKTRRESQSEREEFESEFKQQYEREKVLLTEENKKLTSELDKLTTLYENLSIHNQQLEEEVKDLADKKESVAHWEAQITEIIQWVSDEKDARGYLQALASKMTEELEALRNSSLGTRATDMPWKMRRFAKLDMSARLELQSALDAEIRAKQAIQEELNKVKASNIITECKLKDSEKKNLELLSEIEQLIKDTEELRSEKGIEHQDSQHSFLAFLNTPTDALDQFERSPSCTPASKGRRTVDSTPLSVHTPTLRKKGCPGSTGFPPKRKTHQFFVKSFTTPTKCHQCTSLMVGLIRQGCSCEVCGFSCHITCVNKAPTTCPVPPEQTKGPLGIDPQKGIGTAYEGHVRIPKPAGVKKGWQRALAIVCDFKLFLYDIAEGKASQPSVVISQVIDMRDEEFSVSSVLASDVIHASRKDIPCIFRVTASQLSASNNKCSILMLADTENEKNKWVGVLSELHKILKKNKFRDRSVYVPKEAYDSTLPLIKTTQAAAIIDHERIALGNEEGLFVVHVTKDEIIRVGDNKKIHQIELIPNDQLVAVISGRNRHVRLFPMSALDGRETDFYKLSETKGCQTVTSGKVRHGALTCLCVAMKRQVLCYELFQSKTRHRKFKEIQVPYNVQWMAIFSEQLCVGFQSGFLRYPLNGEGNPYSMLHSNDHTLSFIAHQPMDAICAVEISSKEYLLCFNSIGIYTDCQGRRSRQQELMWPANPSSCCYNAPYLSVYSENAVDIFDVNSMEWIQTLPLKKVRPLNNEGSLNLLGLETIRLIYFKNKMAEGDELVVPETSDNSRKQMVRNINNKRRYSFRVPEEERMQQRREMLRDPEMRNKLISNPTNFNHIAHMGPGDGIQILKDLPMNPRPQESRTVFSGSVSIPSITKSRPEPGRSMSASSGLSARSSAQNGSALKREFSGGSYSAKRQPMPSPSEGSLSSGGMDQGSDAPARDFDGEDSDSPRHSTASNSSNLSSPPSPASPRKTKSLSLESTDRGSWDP

CDK2 CCNA2 (human) = CDK2 CCNA2 (human) (UniProt P24941+P20248)
CDK5 CDK5R1 p35 (human) = CDK5 CDK5R1 p35 (human) (UniProt Q00535+Q15078)
CLK2 (human) = CLK2 (human) (UniProt P49760)
Chain of CLK2 (human) (P49760 whole entry, looked up): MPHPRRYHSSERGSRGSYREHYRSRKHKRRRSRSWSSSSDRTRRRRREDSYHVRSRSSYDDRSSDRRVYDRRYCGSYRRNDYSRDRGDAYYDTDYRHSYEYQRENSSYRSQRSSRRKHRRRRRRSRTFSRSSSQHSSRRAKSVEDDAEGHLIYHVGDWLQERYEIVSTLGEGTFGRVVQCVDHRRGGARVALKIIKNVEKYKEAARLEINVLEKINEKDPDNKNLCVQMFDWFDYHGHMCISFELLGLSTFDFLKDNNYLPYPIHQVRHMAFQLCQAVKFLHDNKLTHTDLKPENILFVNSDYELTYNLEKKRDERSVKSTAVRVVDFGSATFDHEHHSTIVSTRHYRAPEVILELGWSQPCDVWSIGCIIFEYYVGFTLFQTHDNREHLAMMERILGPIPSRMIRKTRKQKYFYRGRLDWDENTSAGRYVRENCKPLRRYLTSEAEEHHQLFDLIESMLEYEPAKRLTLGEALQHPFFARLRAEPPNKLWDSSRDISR

CSF1R (human) = CSF1R (human) (UniProt P07333)
DCLK2 (human) = DCLK2 (human) (UniProt Q8N568)
DSTYK (human) = DSTYK (human) (UniProt Q6XUX3)
EPHA1 (human) = EPHA1 (human) (UniProt P21709)
EPHA6 (human) = EPHA6 (human) (UniProt Q9UF33)
EPHB2 (human) = EPHB2 (human) (UniProt P29323)
Chain of EPHB2 (human) (P29323 whole entry, looked up): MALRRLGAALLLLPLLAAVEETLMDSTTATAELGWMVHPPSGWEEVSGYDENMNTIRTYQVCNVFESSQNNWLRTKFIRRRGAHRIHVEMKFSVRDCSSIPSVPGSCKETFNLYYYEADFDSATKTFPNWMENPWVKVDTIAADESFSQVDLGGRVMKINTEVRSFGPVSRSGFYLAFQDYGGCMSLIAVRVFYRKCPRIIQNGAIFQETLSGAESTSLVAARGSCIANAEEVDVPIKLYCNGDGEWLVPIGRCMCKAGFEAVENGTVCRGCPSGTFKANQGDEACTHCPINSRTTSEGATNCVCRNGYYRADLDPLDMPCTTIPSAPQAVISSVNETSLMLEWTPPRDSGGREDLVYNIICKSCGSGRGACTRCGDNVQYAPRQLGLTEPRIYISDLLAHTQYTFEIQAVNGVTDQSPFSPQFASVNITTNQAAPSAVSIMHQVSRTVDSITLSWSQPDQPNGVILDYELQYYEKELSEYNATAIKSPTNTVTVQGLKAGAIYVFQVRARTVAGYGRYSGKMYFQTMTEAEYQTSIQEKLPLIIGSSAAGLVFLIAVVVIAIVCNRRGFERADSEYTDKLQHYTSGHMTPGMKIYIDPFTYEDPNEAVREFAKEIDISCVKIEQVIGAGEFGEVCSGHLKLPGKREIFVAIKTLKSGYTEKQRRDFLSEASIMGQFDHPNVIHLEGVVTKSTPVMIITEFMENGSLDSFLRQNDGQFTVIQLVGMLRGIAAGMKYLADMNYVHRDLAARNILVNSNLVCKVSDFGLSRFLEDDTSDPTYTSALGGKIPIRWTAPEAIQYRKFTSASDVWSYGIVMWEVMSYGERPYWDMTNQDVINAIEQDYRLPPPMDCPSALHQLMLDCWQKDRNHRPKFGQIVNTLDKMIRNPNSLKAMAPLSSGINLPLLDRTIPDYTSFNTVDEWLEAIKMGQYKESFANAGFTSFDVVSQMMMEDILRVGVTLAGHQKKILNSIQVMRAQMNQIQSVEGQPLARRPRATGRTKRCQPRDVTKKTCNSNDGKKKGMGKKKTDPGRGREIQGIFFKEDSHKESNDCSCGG

EPHB3 (human) = EPHB3 (human) (UniProt P54753)
FGFR3 (human) = FGFR3 (human) (UniProt P22607)
Chain of FGFR3 (human) (P22607 whole entry, looked up): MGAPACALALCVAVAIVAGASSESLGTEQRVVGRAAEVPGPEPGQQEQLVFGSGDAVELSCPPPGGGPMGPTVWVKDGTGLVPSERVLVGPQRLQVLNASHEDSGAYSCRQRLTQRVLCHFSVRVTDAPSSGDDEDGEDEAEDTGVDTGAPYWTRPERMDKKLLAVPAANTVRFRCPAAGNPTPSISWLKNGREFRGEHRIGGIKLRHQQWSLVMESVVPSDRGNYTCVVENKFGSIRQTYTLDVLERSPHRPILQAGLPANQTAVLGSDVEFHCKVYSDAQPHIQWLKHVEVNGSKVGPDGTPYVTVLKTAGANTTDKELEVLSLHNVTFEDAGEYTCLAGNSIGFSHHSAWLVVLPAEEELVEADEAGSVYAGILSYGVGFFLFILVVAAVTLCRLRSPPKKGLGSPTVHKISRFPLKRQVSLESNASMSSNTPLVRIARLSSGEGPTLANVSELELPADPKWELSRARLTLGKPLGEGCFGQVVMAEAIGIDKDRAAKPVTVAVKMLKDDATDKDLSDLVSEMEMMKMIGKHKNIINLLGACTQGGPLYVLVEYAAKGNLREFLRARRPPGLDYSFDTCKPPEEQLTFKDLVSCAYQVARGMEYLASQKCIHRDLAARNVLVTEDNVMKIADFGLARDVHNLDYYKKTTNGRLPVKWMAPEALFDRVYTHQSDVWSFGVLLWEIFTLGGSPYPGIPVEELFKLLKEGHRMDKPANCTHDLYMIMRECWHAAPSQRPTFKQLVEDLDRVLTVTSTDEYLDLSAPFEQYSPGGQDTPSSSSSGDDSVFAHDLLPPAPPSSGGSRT

FRK (human) = FRK (human) (UniProt P42685)
GSK3A (human) = GSK3A (human) (UniProt P49840)
INSRR (human) = INSRR (human) (UniProt P14616)
LRRK2 (human) = LRRK2 (human) (UniProt Q5S007)
LTK (human) = LTK (human) (UniProt P29376)
MAP2K1 (human) = MAP2K1 (human) (UniProt Q02750)
MAP2K2 (human) = MAP2K2 (human) (UniProt P36507)
MAP3K10 (human) = MAP3K10 (human) (UniProt Q02779)
MAP4K2 (human) = MAP4K2 (human) (UniProt Q12851)
MAPK13 (human) = MAPK13 (human) (UniProt O15264)
MAPKAPK3 (human) = MAPKAPK3 (human) (UniProt Q16644)
MARK3 (human) = MARK3 (human) (UniProt P27448)
MYLK2 (human) = MYLK2 (human) (UniProt Q9H1R3)
NEK9 (human) = NEK9 (human) (UniProt Q8TD19)
PAK6 (human) = PAK6 (human) (UniProt Q9NQU5)
PASK (human) = PASK (human) (UniProt Q96RG2)
PHKG1 (human) = PHKG1 (human) (UniProt Q16816)
PIM2 (human) = PIM2 (human) (UniProt Q9P1W9)
PRKACA (human) = PRKACA (human) (UniProt P17612)
RPS6KA1 KD1 KD2 (human) = RPS6KA1 KD1 KD2 (human) (UniProt Q15418)
RPS6KA3 KD1 KD2 (human) = RPS6KA3 KD1 KD2 (human) (UniProt P51812)
STK16 (human) = STK16 (human) (UniProt O75716)
ULK1 (human) = ULK1 (human) (UniProt O75385)
ULK2 (human) = ULK2 (human) (UniProt Q8IYT8)

Chain of BLK (human) (P51451 whole entry, looked up): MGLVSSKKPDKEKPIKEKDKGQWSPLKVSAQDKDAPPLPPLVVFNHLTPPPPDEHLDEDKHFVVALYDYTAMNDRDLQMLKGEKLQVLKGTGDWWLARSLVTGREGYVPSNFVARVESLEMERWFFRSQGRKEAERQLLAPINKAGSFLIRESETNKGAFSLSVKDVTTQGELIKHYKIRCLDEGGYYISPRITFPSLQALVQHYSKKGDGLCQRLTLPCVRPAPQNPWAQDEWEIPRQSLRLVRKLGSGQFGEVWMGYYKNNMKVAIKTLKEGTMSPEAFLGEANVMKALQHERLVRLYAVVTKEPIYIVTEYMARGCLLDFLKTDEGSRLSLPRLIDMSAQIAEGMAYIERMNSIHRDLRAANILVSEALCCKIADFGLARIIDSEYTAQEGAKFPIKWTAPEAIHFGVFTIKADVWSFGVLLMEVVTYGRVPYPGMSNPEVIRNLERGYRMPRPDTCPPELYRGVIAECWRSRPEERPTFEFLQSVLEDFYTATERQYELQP
Chain of AKT1 (human) (P31749 whole entry, looked up): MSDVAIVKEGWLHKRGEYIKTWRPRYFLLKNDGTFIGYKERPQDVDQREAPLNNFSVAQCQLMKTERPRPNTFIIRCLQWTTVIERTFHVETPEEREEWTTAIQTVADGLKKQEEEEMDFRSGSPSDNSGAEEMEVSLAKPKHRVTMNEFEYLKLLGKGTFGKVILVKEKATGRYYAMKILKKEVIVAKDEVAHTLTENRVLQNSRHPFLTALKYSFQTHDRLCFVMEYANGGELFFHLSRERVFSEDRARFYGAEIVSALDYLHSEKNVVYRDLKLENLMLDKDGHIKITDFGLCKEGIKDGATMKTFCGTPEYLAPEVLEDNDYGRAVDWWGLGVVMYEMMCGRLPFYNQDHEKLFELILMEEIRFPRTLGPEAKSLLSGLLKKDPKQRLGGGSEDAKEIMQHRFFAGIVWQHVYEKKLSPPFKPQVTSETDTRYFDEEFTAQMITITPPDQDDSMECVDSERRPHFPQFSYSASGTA

Structure (SMILES): CO[C@H]1CC2CC[C@@H](C)[C@@](O)(O2)C(=O)C(=O)N2CCCC[C@H]2C(=O)OC([C@H](C)C[C@@H]2CC[C@@H](O)[C@H](OC)C2)CC(=O)[C@H](C)/C=C(\C)[C@@H](O)[C@@H](OC)C(=O)[C@H](C)C[C@H](C)/C=C/C=C/C=C/1C (stereo partly specified)
- residual activity (ACVRL1 (human)): 97.9%
- residual activity (AKT1 (human)): 104%
- residual activity (BLK (human)): 94.8%
- residual activity (BRSK1 (human)): 99.9%
- residual activity (BRSK2 (human)): 109%
- residual activity (CAMKK2 (human)): 115%
- residual activity (CDC42BPA (human)): 95.6%
- residual activity (CDK2 CCNA2 (human)): 101%
- residual activity (CDK5 CDK5R1 p35 (human)): 99.5%
- residual activity (CLK2 (human)): 102%
- residual activity (CSF1R (human)): 101%
- residual activity (DCLK2 (human)): 99.2%
- residual activity (DSTYK (human)): 107%
- residual activity (EPHA1 (human)): 99.5%
- residual activity (EPHA6 (human)): 99%
- residual activity (EPHB2 (human)): 114%
- residual activity (EPHB3 (human)): 103%
- residual activity (FGFR3 (human)): 102%
- residual activity (FRK (human)): 106%
- residual activity (GSK3A (human)): 106%
- residual activity (INSRR (human)): 102%
- residual activity (LRRK2 (human)): 98.7%
- residual activity (LTK (human)): 107%
- residual activity (MAP2K1 (human)): 92.1%
- residual activity (MAP2K2 (human)): 103%
- residual activity (MAP3K10 (human)): 109%
- residual activity (MAP4K2 (human)): 111%
- residual activity (MAPK13 (human)): 121%
- residual activity (MAPKAPK3 (human)): 90.9%
- residual activity (MARK3 (human)): 99%
- residual activity (MYLK2 (human)): 103%
- residual activity (NEK9 (human)): 98.2%
- residual activity (PAK6 (human)): 112%
- residual activity (PASK (human)): 101%
- residual activity (PHKG1 (human)): 93%
- residual activity (PIM2 (human)): 102%
- residual activity (PRKACA (human)): 99.8%
- residual activity (RPS6KA1 KD1 KD2 (human)): 104%
- residual activity (RPS6KA3 KD1 KD2 (human)): 105%
- residual activity (STK16 (human)): 112%
- residual activity (ULK1 (human)): 87.9%
- residual activity (ULK2 (human)): 120%

Structure (SMILES): N#CC(C#N)=C(N)/C(C#N)=C/c1ccc(O)cc1
- residual activity (ACVRL1 (human)): 88.8%
- residual activity (AKT1 (human)): 99.2%
- residual activity (BLK (human)): 101%
- residual activity (BRSK1 (human)): 99.2%
- residual activity (BRSK2 (human)): 101%
- residual activity (CAMKK2 (human)): 91.6%
- residual activity (CDC42BPA (human)): 96.2%
- residual activity (CDK2 CCNA2 (human)): 97.9%
- residual activity (CDK5 CDK5R1 p35 (human)): 91.9%
- residual activity (CLK2 (human)): 100%
- residual activity (CSF1R (human)): 98%
- residual activity (DCLK2 (human)): 101%
- residual activity (DSTYK (human)): 92.9%
- residual activity (EPHA1 (human)): 103%
- residual activity (EPHA6 (human)): 98.6%
- residual activity (EPHB2 (human)): 97.1%
- residual activity (EPHB3 (human)): 99.5%
- residual activity (FGFR3 (human)): 98.9%
- residual activity (FRK (human)): 99%
- residual activity (GSK3A (human)): 91.1%
- residual activity (INSRR (human)): 99.9%
- residual activity (LRRK2 (human)): 97.1%
- residual activity (LTK (human)): 92.5%
- residual activity (MAP2K1 (human)): 93.7%
- residual activity (MAP2K2 (human)): 103%
- residual activity (MAP3K10 (human)): 98%
- residual activity (MAP4K2 (human)): 100%
- residual activity (MAPK13 (human)): 103%
- residual activity (MAPKAPK3 (human)): 99.9%
- residual activity (MARK3 (human)): 96.5%
- residual activity (MYLK2 (human)): 99.4%
- residual activity (NEK9 (human)): 97.9%
- residual activity (PAK6 (human)): 97%
- residual activity (PASK (human)): 82.9%
- residual activity (PHKG1 (human)): 92.5%
- residual activity (PIM2 (human)): 88.2%
- residual activity (PRKACA (human)): 100%
- residual activity (RPS6KA1 KD1 KD2 (human)): 93.8%
- residual activity (RPS6KA3 KD1 KD2 (human)): 94.6%
- residual activity (STK16 (human)): 109%
- residual activity (ULK1 (human)): 89.3%
- residual activity (ULK2 (human)): 105%

Structure (SMILES): CCN(CC)CCNC(=O)c1c(C)[nH]c(/C=C2\C(=O)Nc3ccc(Cl)cc32)c1C
- residual activity (ACVRL1 (human)): 89%
- residual activity (AKT1 (human)): 102%
- residual activity (BLK (human)): 15.8%
- residual activity (BRSK1 (human)): 36.5%
- residual activity (BRSK2 (human)): 53.7%
- residual activity (CAMKK2 (human)): 48%
- residual activity (CDC42BPA (human)): 60%
- residual activity (CDK2 CCNA2 (human)): 92.8%
- residual activity (CDK5 CDK5R1 p35 (human)): 86.2%
- residual activity (CLK2 (human)): 15.8%
- residual activity (CSF1R (human)): 7.41%
- residual activity (DCLK2 (human)): 82.8%
- residual activity (DSTYK (human)): 105%
- residual activity (EPHA1 (human)): 89.4%
- residual activity (EPHA6 (human)): 45.7%
- residual activity (EPHB2 (human)): 87.5%
- residual activity (EPHB3 (human)): 100%
- residual activity (FGFR3 (human)): 12.3%
- residual activity (FRK (human)): 59.3%
- residual activity (GSK3A (human)): 88.3%
- residual activity (INSRR (human)): 4.33%
- residual activity (LRRK2 (human)): 1.44%
- residual activity (LTK (human)): 11.6%
- residual activity (MAP2K1 (human)): 33.1%
- residual activity (MAP2K2 (human)): 41.4%
- residual activity (MAP3K10 (human)): 82.8%
- residual activity (MAP4K2 (human)): 8.07%
- residual activity (MAPK13 (human)): 104%
- residual activity (MAPKAPK3 (human)): 101%
- residual activity (MARK3 (human)): 7.86%
- residual activity (MYLK2 (human)): 10%
- residual activity (NEK9 (human)): 95.9%
- residual activity (PAK6 (human)): 101%
- residual activity (PASK (human)): 89.6%
- residual activity (PHKG1 (human)): 3.19%
- residual activity (PIM2 (human)): 101%
- residual activity (PRKACA (human)): 90%
- residual activity (RPS6KA1 KD1 KD2 (human)): 13.1%
- residual activity (RPS6KA3 KD1 KD2 (human)): 15.1%
- residual activity (STK16 (human)): 72.9%
- residual activity (ULK1 (human)): 13.6%
- residual activity (ULK2 (human)): 43%
